The results in this text go back to patent US20240066045A1, “SEMICARBAZONE-BASED SAPONIN CONJUGATE” (priority 2020, published 2024).

In data set [1] the test system is A431 cells. Briefly: Cell killing assay (MTS): saponin titrated on fixed non-effective concentration of targeted toxin (endosomal escape enhancing activity). The format is cell-based. The method, then:
(§1) Cell viability was determined by an MTS-assay, performed according to the manufacturer's instruction (CellTiter 96® AQueous One Solution Cell Proliferation Assay, Promega). Briefly, the MTS solution was diluted 20× in DMEM without phenol red (PAN-Biotech GmbH) supplemented with 10% FBS (PAN-Biotech GmbH). The cells were washed once with 200 μL PBS per well, after which 100 μL diluted MTS solution was added per well. The plate was incubated for approximately 20-30 minutes at 37° C. Subsequently, the optical density at 492 nm was measured on a Thermo Scientific Multiskan FC plate reader (Thermo Scientific). For quantification the background signal of ‘medium only’ wells was subtracted from all other wells, before the ratio of untreated/treated cells was calculated, by dividing the background corrected signal of untreated wells over the background corrected signal of the treated wells.

Data set [2] concerns HeLa cells. The data set is described as above. The note with it: for IC50: read-out: IC50 nM (Activity; + 5 pM EGFdianthin), HeLa cells, + 5 pM EGFdianthin. The format is cell-based. The method, then: as §1
Data set [3] concerns A431 cells. The data set is described as follows: Cell toxicity (MTS), saponin alone. The format is cell-based. How it is done: as §1
The test system of data set [4] is HeLa cells. Briefly: Cell toxicity (MTS), saponin alone. The format is cell-based. How it is done: as §1
Data set [5] has as its system human red blood cells (RBC). The data set is described as follows: Haemolysis assay. The format is cell-based. The following applies: fresh human red blood cells. How it is done:
Red blood cells (RBCs) were isolated from a buffy coat using a Ficoll gradient. The obtained RBC pellet (˜4-5 ml) was washed 2× with 50 ml DPBS (without Ca^2+/Mg^2+, PAN-Biotech GmbH). Cells were pelleted by centrifugation for 10 min, 800×g at RT. RBC were counted and resuspended at 500.000.000 c/ml in DPBS (without Ca^2+/Mg^2+), based on total cell count. SO1861-linker dilutions were prepared in DPBS (with Ca^2+/Mg^2+, PAN-Biotech GmbH), at 1.11× final strength. For positive lysis control a 0.02% Triton-X100 solution was prepared in DPBS^+/+. Of all compound solutions 135 μl was dispensed/well in a 96 well V-bottom plate. To this 15 μl RBC suspension was added and mixed shortly (10 sec—600 rpm). The plate was incubated 30 min at RT, with gentle agitation. Afterwards the plate was spun for 10 min at 800×g to pellet the RBC and 100-120 μl supernatant was transferred to a standard 96 wp. Subsequently, the OD at 405 nm was measured on a Thermo Scientific Multiskan FC plate reader (Thermo Scientific). For quantification the background signal of ‘DPBS^+/+ only’ wells was subtracted from all other wells before the percentage of hemolysis was calculated in comparison to 0.02% Triton-X100, by dividing the background corrected signal of treated wells over the background corrected signal of the 0.02% Triton-X100 wells (×100).

A further data set relates to HSP27 mRNA in A431 cells. Briefly: HSP27 gene silencing (HSP27 mRNA expression, qPCR). The format is cell-based. The following applies: saponin titrated + 50 nM Trastuzumab-HSP27BNA. The source says: RNA from cells was isolated and analysed according to standard protocols (Biorad).
In general terms: In qPCR the cycle at which signal appears reflects the starting amount.

The nature of data set [6]: CMC determination (ANS fluorescence). The format is physicochemical. How it is done: The critical micellar concentration (CMC) of saponins derived from Saponaria Officinalis (SO) was determined by the method of DeVendittis et al. (www.sciencedirect.com/science/article/pii/0003269781900063, doi.org/10.1016/0003-2697(81)90006-3, Analytical Biochemistry, Volume 115, Issue 2, August 1981, Pages 278-286) as follows: The emission spectrum of 8-Anilinonaphthalene-1-sulfonic acid (ANS) in either purified water (MQ) or PBS (Dulbecco's PBS+/+) was determined at dry weight concentrations of saponins ranging from 1 to 1400 μM to cover the range below and above the CMC. Above the CMC, the fluorescence yield of ANS increases and the wavelength of maximum emission decreases due to portioning of the fluorescent dye into micelles. Fluorescence yields were recorded on a Fluoroskan Ascent FL (Thermo Scientific) at an excitation wavelength of 355 nm, and an emission wavelength of 460 nm. 6 μg at a concentration of 75.86 μM of ANS were used per sample and measurement.

Read-outs that look alike come from different tables or passages of the source.

A word on the IC50: it is the midpoint of a concentration-inhibition curve.

For the compound `CC(=O)OC1C(C)OC(OC2C(C)OC(OC(=O)[C@]34CCC(C)(C)CC3C3=CCC5[C@@]6(C)CC[C@H](OC7OC(C(=O)O)C(O)C(OC8OCC(O)C(O)C8O)C7OC7OC(CO)C(O)C(O)C7O)[C@@](C)(/C=N/NC(=O)CCCCCN7C(=O)C=CC7=O)C6CC[C@@]5(C)[C@]3(C)C[C@H]4O)C(OC3OC(C)C(OC4OCC(O)C(OC5OC(CO)C(O)C(O)C5O)C4O)C(O)C3O)C2O)C(O)C1OC1OCC(O)C(O)C1O` (stereo partly drawn) [SO1861-EMCH], the half-maximal inhibitory concentration (IC50) with A431 cells [1] (+ 50 pM Trastuzumab-saporin, read-out: IC50 cell killing) is 2500 nM; with A431 cells [1] (read-out: IC50 nM (Activity; + 5 pM EGFdianthin), + 5 pM EGFdianthin) it was 3000 nM; in the data set on HeLa cells [2] it was 4000 nM; in the data set with A431 cells [3], more than 30 µM; in the data set with HeLa cells [4] it was more than 100 µM; in data set [5], more than 500 µM.

On to `CC(=O)OC1C(C)OC(OC2C(C)OC(OC(=O)[C@]34CCC(C)(C)CC3C3=CCC5[C@@]6(C)CC[C@H](OC7OC(C(=O)O)C(O)C(OC8OCC(O)C(O)C8O)C7OC7OC(CO)C(O)C(O)C7O)[C@@](C)(C=NNC(=O)N7CCN(C(=O)CCCCCN8C(=O)C=CC8=O)CC7)C6CC[C@@]5(C)[C@]3(C)C[C@H]4O)C(OC3OC(C)C(OC4OCC(O)C(OC5OC(CO)C(O)C(O)C5O)C4O)C(O)C3O)C2O)C(O)C1OC1OCC(O)C(O)C1O` (stereo partly drawn) [SO1861-SC-Mal], for which the IC50 in the data set with HSP27 mRNA in A431 cells was 0.6 µM; with HeLa cells [4], more than 100 µM; in data set [5], 250 µM. Moreover, the CMC in data set [6] (listed as SO1861-Semicarbazone Mal) and in data set [6] (listed as SO1861-semicarbazone Mal) was more than 800 µM throughout.

For the compound `CC(=O)O[C@H]1[C@H](O[C@@H]2OC[C@@H](O)[C@H](O)[C@H]2O)[C@@H](O)[C@H](O[C@@H]2[C@H](O)[C@@H](O[C@@H]3O[C@@H](C)[C@H](O[C@@H]4OC[C@@H](O)[C@H](O[C@@H]5O[C@H](CO)[C@@H](O)[C@H](O)[C@H]5O)[C@H]4O)[C@@H](O)[C@H]3O)[C@H](OC(=O)[C@]34CCC(C)(C)C[C@H]3C3=CC[C@@H]5[C@@]6(C)CC[C@H](O[C@@H]7O[C@H](C(=O)O)[C@@H](O)[C@H](O[C@@H]8OC[C@@H](O)[C@H](O)[C@H]8O)[C@H]7O[C@@H]7O[C@H](CO)[C@H](O)[C@H](O)[C@H]7O)[C@@](C)(C=O)[C@@H]6CC[C@@]5(C)[C@]3(C)C[C@H]4O)O[C@@H]2C)O[C@@H]1C` [SO1861], the 50% inhibitory concentration (IC50) is 300 nM in the data set on A431 cells [1] (Homo sapiens, A-431, read-out: IC50 nM (Activity; + 5 pM EGFdianthin), + 5 pM EGFdianthin); 500 nM in the data set with HeLa cells [2] (Homo sapiens); 2 µM in the data set on A431 cells [3] (Homo sapiens, A-431); 9 µM in the data set with HeLa cells [4] (Homo sapiens); 10 µM in data set [5] (Erythrocyte). Moreover, in the data set with HeLa cells [2] (HeLa and A431, + 5 pM EGFdianthin or 10 pM cetuximab-saporin or 50 pM Trastuzumab-saporin), the “activity compared with the SO1861 derivatives” value is listed as “strongest activity”. The compound also displayed a CMC in data set [6] of 120 µM.
